Calls of active or inactive are those of the source. The rule behind the calls is not given here.
What was measured:
Mus musculus [1] = test: Antiinflammatory activity in LPS-induced C57/BL6 mouse model of acute lung injury assessed as reduction in IL6 mRNA expression at 10 mg/kg, ip pretreated for 30 mins followed by LPS challenge measured after 6 hrs by SYBR green dye based RT-qPCR analysis; assay type: functional, organism-based
[2] = Cytotoxicity against rat NRK cells assessed as cell viability at 20 uM after 24 hrs by MTT assay relative to control; assay type: cell-based; details: read-out: Activity
Mus musculus [3] = test: Antiinflammatory activity in LPS-induced C57/BL6 mouse model of acute lung injury assessed as reduction in pulmonary congestion at 10 mg/kg, ip pretreated for 30 mins followed by LPS challenge measured after 6 hrs by hematoxylin and eosin staining based microscopic analysis; assay type: functional, organism-based
Mus musculus [4] = test: Antiinflammatory activity in LPS-induced C57/BL6 mouse model of acute lung injury assessed as reduction in interstitial edema at 10 mg/kg, ip pretreated for 30 mins followed by LPS challenge measured after 6 hrs by hematoxylin and eosin staining based microscopic analysis; assay type: functional, organism-based
Mus musculus [5] = test: Antiinflammatory activity in LPS-induced C57/BL6 mouse model of acute lung injury assessed as reduction in IL1beta mRNA expression at 10 mg/kg, ip pretreated for 30 mins followed by LPS challenge measured after 6 hrs by SYBR green dye based RT-qPCR analysis; assay type: functional, organism-based
[6] = target: T1, Myeloid differentiation primary response protein MyD88 (Homo sapiens, UniProt Q99836); test: Inhibition of LPS-induced HA-tagged MyD88 (unknown origin) interaction with FLAG-tagged MyD88 (unknown origin) expressed in HEK293 cells at 20 uM after 48 hrs by co-immunoprecipitation method; assay type: cell-based
[7] = target: Myeloid differentiation primary response protein MyD88 (Mus musculus) (UniProt P22366); test: Inhibition of MyD88 in ICR mouse primary peritoneal macrophages assessed as reduction in LPS-induced ERK phosphorylation at 20 uM preincubated for 30 mins followed by LPS-stimulation and measured after 20 mins by Western blot analysis
Peritoneal macrophage [8] = test: Antiinflammatory activity in ICR mouse primary peritoneal macrophages assessed as inhibition of LPS-induced IL-6 production preincubated for 2 hrs followed by LPS stimulation and measured after 22 hrs by ELISA; assay type: functional, cell-based
[9] = target: T1, Myeloid differentiation primary response protein MyD88; test: Potency index, ratio of TJ-M2010-5 Kd to test compound Kd for recombinant human MyD88 TIR domain (157 to 296 residues) expressed in Escherichia coli BL21(DE3)
Mus musculus [10] = test: Antiinflammatory activity in LPS-induced C57/BL6 mouse model of acute lung injury assessed as reduction in lung wet/dry ratio at 10 mg/kg, ip pretreated for 30 mins followed by LPS challenge measured after 6 hrs; assay type: functional, organism-based
[11] = target: Myeloid differentiation primary response protein MyD88 (Mus musculus) (UniProt P22366); test: Inhibition of MyD88 in ICR mouse primary peritoneal macrophages assessed as reduction in LPS-induced NFkappaB translocation at 20 uM preincubated for 30 mins followed by LPS-stimulation and measured after 20 mins by immunofluorescence microscopic analysis
Mus musculus [12] = test: Antiinflammatory activity in LPS-induced C57/BL6 mouse model of acute lung injury assessed as reduction in inflammatory infiltration at 10 mg/kg, ip pretreated for 30 mins followed by LPS challenge measured after 6 hrs by hematoxylin and eosin staining based microscopic analysis; assay type: functional, organism-based
Peritoneal macrophage [13] = test: Antiinflammatory activity in ICR mouse primary peritoneal macrophages assessed as inhibition of LPS-induced TNFalpha production preincubated for 2 hrs followed by LPS stimulation and measured after 22 hrs by ELISA; assay type: functional, cell-based
Mus musculus [14] = test: Antiinflammatory activity in LPS-induced C57/BL6 mouse model of acute lung injury assessed as reduction in total protein levels in BALF at 10 mg/kg, ip pretreated for 30 mins followed by LPS challenge measured after 6 hrs; assay type: functional, organism-based
[15] = target: T1, Myeloid differentiation primary response protein MyD88; test: Binding affinity to recombinant human MyD88 TIR domain (157 to 296 residues) expressed in Escherichia coli BL21(DE3) by surface plasmon resonance analysis
Mus musculus [16] = test: Antiinflammatory activity in LPS-induced C57/BL6 mouse model of acute lung injury assessed as reduction in ICAM1 mRNA expression at 10 mg/kg, ip pretreated for 30 mins followed by LPS challenge measured after 6 hrs by SYBR green dye based RT-qPCR analysis; assay type: functional, organism-based
[17] = target: Toll-like receptor 4 (Homo sapiens) (UniProt O00206); test: Binding affinity to recombinant human 10His-tagged TLR4 (24 to 631 residues) by SPR assay
Mus musculus [18] = test: Antiinflammatory activity in LPS-induced C57/BL6 mouse model of acute lung injury assessed as reduction in IL6 level in serum at 10 mg/kg, ip pretreated for 30 mins followed by LPS challenge measured after 6 hrs by ELISA; assay type: functional, organism-based
Mus musculus [19] = test: Antiinflammatory activity in LPS-induced C57/BL6 mouse model of acute lung injury assessed as reduction in TNFalpha mRNA expression at 10 mg/kg, ip pretreated for 30 mins followed by LPS challenge measured after 6 hrs by SYBR green dye based RT-qPCR analysis; assay type: functional, organism-based
Mus musculus [20] = test: Antiinflammatory activity in LPS-induced C57/BL6 mouse model of acute lung injury assessed as reduction in TNFalpha level in BALF at 10 mg/kg, ip pretreated for 30 mins followed by LPS challenge measured after 6 hrs by ELISA; assay type: functional, organism-based
Mus musculus [21] = test: Antiinflammatory activity in LPS-induced C57/BL6 mouse model of acute lung injury assessed as reduction in thicken alveolar septa at 10 mg/kg, ip pretreated for 30 mins followed by LPS challenge measured after 6 hrs by hematoxylin and eosin staining based microscopic analysis; assay type: functional, organism-based
Mus musculus [22] = test: Antiinflammatory activity in LPS-induced C57/BL6 mouse model of acute lung injury assessed as reduction in macrophage inflammatory infiltration at 10 mg/kg, ip pretreated for 30 mins followed by LPS challenge measured after 6 hrs by F4/80/hematoxylin staining based microscopic analysis; assay type: functional, organism-based
[23] = target: Myeloid differentiation primary response protein MyD88 (Mus musculus) (UniProt P22366); test: Inhibition of MyD88 in mouse RAW264.7 cells expressing EGFP-fused NFkappaB at 10 uM preincubated for 30 mins followed by LPS-stimulation and measured after 1 hr by fluorescence assay; assay type: cell-based
[24] = target: Myeloid differentiation primary response protein MyD88 (Mus musculus) (UniProt P22366); test: Inhibition of MyD88 in ICR mouse primary peritoneal macrophages assessed as reduction in LPS-induced JNK phosphorylation at 20 uM preincubated for 30 mins followed by LPS-stimulation and measured after 20 mins by Western blot analysis
[25] = Cytotoxicity against rat H9c2 cells assessed as cell viability at 20 uM after 24 hrs by MTT assay relative to control; assay type: cell-based; details: read-out: Activity
Peritoneal macrophage [26] = test: Antiinflammatory activity in ICR mouse primary peritoneal macrophages assessed as inhibition of LPS-induced TNFalpha production at 20 uM preincubated for 60 mins followed by LPS stimulation and measured after 24 hrs by ELISA relative to control; assay type: functional
[27] = Cytotoxicity against ICR mouse primary peritoneal macrophages assessed as cell viability at 20 uM after 24 hrs by MTT assay relative to control; assay type: cell-based, Peritoneal macrophage; details: read-out: Activity
Mus musculus [28] = test: Antiinflammatory activity in LPS-induced C57/BL6 mouse model of acute lung injury assessed as reduction in IL6 level in BALF at 10 mg/kg, ip pretreated for 30 mins followed by LPS challenge measured after 6 hrs by ELISA; assay type: functional, organism-based

Sequence of Myeloid differentiation primary response protein MyD88 (Mus musculus) (P22366 whole entry, the tested form may be a part): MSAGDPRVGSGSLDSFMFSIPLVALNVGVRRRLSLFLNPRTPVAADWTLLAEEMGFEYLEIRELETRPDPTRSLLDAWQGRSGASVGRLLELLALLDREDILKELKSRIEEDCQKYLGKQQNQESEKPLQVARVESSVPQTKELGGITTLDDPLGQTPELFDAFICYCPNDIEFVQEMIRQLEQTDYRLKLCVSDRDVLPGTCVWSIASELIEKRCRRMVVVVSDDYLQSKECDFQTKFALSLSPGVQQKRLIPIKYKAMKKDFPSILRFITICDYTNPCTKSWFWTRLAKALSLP
T1 sequence (Q99836 whole entry): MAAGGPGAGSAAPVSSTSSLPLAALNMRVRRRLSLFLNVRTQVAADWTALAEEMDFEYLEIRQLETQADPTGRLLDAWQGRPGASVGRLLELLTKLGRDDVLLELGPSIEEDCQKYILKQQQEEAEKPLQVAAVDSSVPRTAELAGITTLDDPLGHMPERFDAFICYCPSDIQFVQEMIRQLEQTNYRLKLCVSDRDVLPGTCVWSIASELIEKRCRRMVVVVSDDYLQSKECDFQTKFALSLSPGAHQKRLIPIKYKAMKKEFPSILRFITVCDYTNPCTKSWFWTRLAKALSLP
Sequence of Toll-like receptor 4 (Homo sapiens) (O00206 whole entry, the tested form may be a part): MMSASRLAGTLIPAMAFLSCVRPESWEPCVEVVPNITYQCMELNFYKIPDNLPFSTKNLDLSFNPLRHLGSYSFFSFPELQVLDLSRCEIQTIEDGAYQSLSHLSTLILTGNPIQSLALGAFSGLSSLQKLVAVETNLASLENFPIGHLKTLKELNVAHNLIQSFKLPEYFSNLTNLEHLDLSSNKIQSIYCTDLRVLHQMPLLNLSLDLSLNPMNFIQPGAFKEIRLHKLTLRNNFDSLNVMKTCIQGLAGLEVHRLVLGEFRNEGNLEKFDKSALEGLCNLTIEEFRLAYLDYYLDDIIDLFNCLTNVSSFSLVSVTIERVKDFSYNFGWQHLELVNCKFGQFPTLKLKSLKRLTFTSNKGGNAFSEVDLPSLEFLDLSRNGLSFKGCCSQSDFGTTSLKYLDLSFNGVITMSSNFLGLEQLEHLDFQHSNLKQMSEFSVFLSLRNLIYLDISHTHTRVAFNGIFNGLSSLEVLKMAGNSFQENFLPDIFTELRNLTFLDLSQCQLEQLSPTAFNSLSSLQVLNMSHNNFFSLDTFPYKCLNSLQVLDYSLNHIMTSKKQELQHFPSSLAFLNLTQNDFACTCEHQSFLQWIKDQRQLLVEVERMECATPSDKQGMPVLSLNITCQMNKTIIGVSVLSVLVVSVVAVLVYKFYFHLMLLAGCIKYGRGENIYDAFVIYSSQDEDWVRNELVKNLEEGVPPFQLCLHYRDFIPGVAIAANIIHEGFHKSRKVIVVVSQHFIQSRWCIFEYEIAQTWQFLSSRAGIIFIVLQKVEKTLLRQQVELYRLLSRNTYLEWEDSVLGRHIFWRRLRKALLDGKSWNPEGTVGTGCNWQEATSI

**Q.** For `COc1cc(-c2csc(NC(=O)CCN3CCN(Cc4cccc([N+](=O)[O-])c4)CC3)n2)ccc1O`, which Activity (Mus musculus [1]) is on record?
**A.** Its Activity is “Active”.

**Q.** And the viability at 24 h, 20 µM [2]?
**A.** Its viability at 24 h, 20 µM is over 80%.

**Q.** And the Activity (Mus musculus [3])?
**A.** Its Activity is “Active”.

**Q.** What about the Activity (Mus musculus [4]) of the same compound?
**A.** Its Activity is “Active”.

**Q.** And the Activity (Mus musculus [5])?
**A.** The Activity was “Active”.

**Q.** What about the inhibition [6] of the same compound?
**A.** Its inhibition is “Active”.

**Q.** What about the inhibition [7] of the same compound?
**A.** The inhibition was “Active”.

**Q.** And the IC50 (Peritoneal macrophage [8])?
**A.** The IC50 was 2.52 µM.

**Q.** What about the inhibition (Peritoneal macrophage [8]) of the same compound?
**A.** The inhibition was “Dose-dependent effect”.

**Q.** And the Ratio [9]?
**A.** Its Ratio is 5.

**Q.** What about the Activity (Mus musculus [10]) of the same compound?
**A.** Its Activity is “Active”.

**Q.** And the inhibition [11]?
**A.** Its inhibition is “Active”.

**Q.** And the Activity (Mus musculus [12])?
**A.** The Activity was “Active”.

**Q.** What about the IC50 (Peritoneal macrophage [13]) of the same compound?
**A.** The IC50 was 0.89 µM.

**Q.** And the inhibition (Peritoneal macrophage [13])?
**A.** Its inhibition is “Dose-dependent effect”.

**Q.** And the Activity (Mus musculus [14])?
**A.** Its Activity is “Active”.

**Q.** And the Activity [15]?
**A.** The Activity was “Dose-dependent effect”.

**Q.** What about the Ka [15] of the same compound?
**A.** Its Ka is 4830 M⁻¹ s⁻¹.

**Q.** What about the Kd [15] of the same compound?
**A.** The Kd was 34.5 µM.

**Q.** And the Kdiss [15]?
**A.** Its Kdiss is 0.167 s⁻¹.

**Q.** What about the Activity (Mus musculus [16]) of the same compound?
**A.** Its Activity is “Active”.

**Q.** What about the Activity [17] of the same compound?
**A.** The Activity was “inactive”.

**Q.** What about the Activity (Mus musculus [18]) of the same compound?
**A.** Its Activity is “Active”.

**Q.** What about the Activity (Mus musculus [19]) of the same compound?
**A.** The Activity was “Active”.

**Q.** And the Activity (Mus musculus [20])?
**A.** The Activity was “Active”.

**Q.** And the Activity (Mus musculus [21])?
**A.** Its Activity is “Active”.

**Q.** And the Activity (Mus musculus [22])?
**A.** Its Activity is “Active”.

**Q.** What about the inhibition [23] of the same compound?
**A.** Its inhibition is “Active”.

**Q.** And the inhibition [24]?
**A.** The inhibition was “Active”.

**Q.** And the viability at 24 h, 20 µM [25]?
**A.** The viability at 24 h, 20 µM was over 80%.

**Q.** What about the inhibition at 20 µM (Peritoneal macrophage [26]) of the same compound?
**A.** Its inhibition at 20 µM is 90.4%.

**Q.** What about the viability at 24 h, 20 µM [27] of the same compound?
**A.** Its viability at 24 h, 20 µM is over 80%.

**Q.** And the Activity (Mus musculus [28])?
**A.** Its Activity is “Active”.
